Earlier results on 2 molecules are cited in US10874130B2, “Steviol glycoside solutions” (PureCircle USA Inc., priority 2015, dated 2020).

The conditions of the data set: heat and pH.

In the case of `C=C1C[C@@]23CC[C@H]4[C@@](C)(CCC[C@@]4(C)C(=O)O[C@@H]4O[C@H](CO)[C@@H](O)[C@H](O)[C@H]4O)[C@@H]2CC[C@]1(O[C@@H]1O[C@H](CO)[C@@H](O)[C@H](O)[C@H]1O[C@@H]1O[C@H](CO)[C@@H](O)[C@H](O)[C@H]1O)C3` [stevioside], the “Stability in carbonated beverages” value is “heat and pH stability”. For `C=C1C[C@@]23CC[C@H]4[C@@](C)(CCC[C@@]4(C)C(=O)O[C@@H]4O[C@H](CO)[C@@H](O)[C@H](O)[C@H]4O)[C@@H]2CC[C@]1(O[C@@H]1O[C@H](CO)[C@@H](O)[C@H](O[C@@H]2O[C@H](CO)[C@@H](O)[C@H](O)[C@H]2O)[C@H]1O[C@@H]1O[C@H](CO)[C@@H](O)[C@H](O)[C@H]1O)C3` [rebaudioside A], the “Stability in carbonated beverages” value is “heat and pH stability”.
